Test results from patent US20120142667A1, “PYRIMIDINE DERIVATIVES AS ZAP-70 INHIBITORS” (priority 2009, published 2012).

Assays:
ZAP-70 = target: T1, ZAP-70 (Homo sapiens, UniProt P43403); assay: ZAP-70 kinobeads assay; assay type: binding; settings: cell lysate
T1 construct: endogenous in cells; host or cells: cell lysate
T1 sequence (P43403 1-619): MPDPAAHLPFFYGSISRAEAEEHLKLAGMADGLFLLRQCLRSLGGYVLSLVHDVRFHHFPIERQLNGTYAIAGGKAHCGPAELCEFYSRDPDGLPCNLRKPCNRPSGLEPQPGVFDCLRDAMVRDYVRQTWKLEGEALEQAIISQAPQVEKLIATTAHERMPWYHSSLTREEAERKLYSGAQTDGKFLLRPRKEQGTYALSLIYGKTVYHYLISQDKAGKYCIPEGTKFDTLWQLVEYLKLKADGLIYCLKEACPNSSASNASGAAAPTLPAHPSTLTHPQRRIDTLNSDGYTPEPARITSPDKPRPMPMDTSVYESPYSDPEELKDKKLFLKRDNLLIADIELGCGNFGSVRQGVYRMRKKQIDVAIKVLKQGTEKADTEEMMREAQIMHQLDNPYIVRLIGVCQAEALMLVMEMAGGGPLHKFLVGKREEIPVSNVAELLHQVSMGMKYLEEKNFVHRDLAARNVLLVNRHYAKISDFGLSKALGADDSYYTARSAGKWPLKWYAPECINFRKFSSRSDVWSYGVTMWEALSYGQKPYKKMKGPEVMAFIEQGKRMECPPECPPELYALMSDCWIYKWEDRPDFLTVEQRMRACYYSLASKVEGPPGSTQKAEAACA
Summary of the method: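 Competition binding: compounds at various concentrations incubated with cell lysate plus affinity matrix bearing immobilized aminopyrido-pyrimidine ligand 24. ZAP-70 retained on beads eluted and quantified by specific-antibody dot blot with infrared detection.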

[1] = test system: Calcium Ion Release in Cells; assay: calcium release assay (measurement of calcium ion release in cells); assay type: cell-based; settings: calcium release assay as described in WO-A 2009/080638

Row | Compound | IC50 (ZAP-70) [µM] | IC50 [1] [µM]
1 | COc1ccc(Nc2nc(Nc3cc(OCCO)ccc3C)ncc2Cl)c(NS(C)(=O)=O)c1 [Example 88, N-(2-(5-chloro-2-(5-(2-hydroxyethoxy)-2-methylphenylamino)pyrimidin-4-ylamino)-5-methoxyphenyl)methanesulfonamide] | ≤ 0.1 | ≤ 1
2 | COc1ccc(Nc2nc(Nc3cccc(OCCF)c3C)ncc2Cl)c(NS(C)(=O)=O)c1 [Example 92, N-(2-(5-chloro-2-(3-(2-fluoroethoxy)-2-methylphenylamino)pyrimidin-4-ylamino)-5-methoxyphenyl)methanesulfonamide] | 0.1 to 1 | ≤ 1
3 | COc1ccc(Nc2nc(Nc3cccc(OCC(C)O)c3C)ncc2Cl)c(NS(C)(=O)=O)c1 (stereo not drawn) [Example 93, N-(2-((5-chloro-2-((3-(2-hydroxypropoxy)-2-methylphenyl)amino)pyrimidin-4-yl)amino)-5-methoxyphenyl)methanesulfonamide] | 0.1 to 1 | ≤ 1
4 | COc1ccc(Nc2nc(Nc3cccc(OCCCO)c3C)ncc2Cl)c(NS(C)(=O)=O)c1 [Example 94, N-(2-((5-chloro-2-((3-(3-hydroxypropoxy)-2-methylphenyl)amino)pyrimidin-4-yl)amino)-5-methoxyphenyl)methanesulfonamide] | 0.1 to 1 | ≤ 1
5 | COc1ccc(Nc2nc(Nc3cccc(OCC(C)(C)O)c3C)ncc2Cl)c(NS(C)(=O)=O)c1 [Example 95, N-(2-((5-chloro-2-((3-(2-hydroxy-2-methylpropoxy)-2-methylphenyl)amino)pyrimidin-4-yl)amino)-5-methoxyphenyl)methanesulfonamide] | ≤ 0.1 | ≤ 1
6 | COc1ccc(Nc2nc(Nc3cccc(CCCO)c3C)ncc2Cl)c(NS(C)(=O)=O)c1 [Example 97, N-(2-((5-chloro-2-((3-(3-hydroxypropyl)-2-methylphenyl)amino)pyrimidin-4-yl)amino)-5-methoxyphenyl)methanesulfonamide] | ≤ 0.1 | ≤ 1
7 | COc1ccc(Nc2nc(Nc3cc(OC)c(CCO)cc3OC)ncc2Cl)c(NS(C)(=O)=O)c1 [Example 105, N-(2-((5-chloro-2-((4-(2-hydroxyethyl)-2,5-dimethoxyphenyl)amino)pyrimidin-4-yl)amino)-5-methoxyphenyl)methanesulfonamide] | 0.1 to 1 | ≤ 1
8 | COc1ccc(Nc2nc(Nc3cc(OCCO)ccc3OC)ncc2F)c(NS(C)(=O)=O)c1 [Example 106, N-(2-(5-fluoro-2-(5-(2-hydroxyethoxy)-2-methoxyphenylamino)pyrimidin-4-ylamino)-5-methoxyphenyl)methanesulfonamide] | 0.1 to 1 | ≤ 1
9 | COc1ccc(Nc2nc(Nc3cc(OC)c(OCCO)cc3OC)ncc2Cl)c(NS(C)(=O)=O)c1 [Example 110, N-(2-((5-chloro-2-((4-(2-hydroxyethoxy)-2,5-dimethoxyphenyl)amino)pyrimidin-4-yl)amino)-5-methoxyphenyl)methanesulfonamide] | ≤ 0.1 | ≤ 1
10 | COc1ccc(Nc2nc(Nc3cc(OCCO)ccc3Cl)ncc2Cl)c(NS(C)(=O)=O)c1 [Example 111, N-(2-((5-chloro-2-((2-chloro-5-(2-hydroxyethoxy)phenyl)amino)pyrimidin-4-yl)amino)-5-methoxyphenyl)methanesulfonamide] | 0.1 to 1 | ≤ 1

Results, then the molecule that gave them:

Row | IC50 (ZAP-70) [µM] | IC50 [1] [µM] | Compound
11 | ≤ 0.1 | ≤ 1 | COc1ccc(Nc2nc(Nc3ccc(OCC(N)=O)cc3OC)ncc2Cl)c(NS(C)(=O)=O)c1 [Example 89, 2-(4-((5-chloro-4-((4-methoxy-2-(methylsulfonamido)phenyl)amino)pyrimidin-2-yl)amino)-3-methoxyphenoxy)acetamide]
12 | 0.1 to 1 | ≤ 1 | COc1ccc(Nc2nc(Nc3cc(OC)c(CC(N)=O)cc3OC)ncc2Cl)c(NS(C)(=O)=O)c1 [Example 107, 2-(4-((5-chloro-4-((4-methoxy-2-(methylsulfonamido)phenyl)amino)pyrimidin-2-yl)amino)-2,5-dimethoxyphenyl)acetamide]
13 | ≤ 0.1 | ≤ 1 | COc1ccc(Nc2nc(Nc3cc(OCC(N)=O)ccc3OC)ncc2Cl)c(NS(C)(=O)=O)c1 [Example 108, 2-(3-((5-chloro-4-((4-methoxy-2-(methylsulfonamido)phenyl)amino)pyrimidin-2-yl)amino)-4-methoxyphenoxy)acetamide]
14 | 0.1 to 1 | ≤ 1 | COc1ccc(Nc2nc(Nc3cc(CCCO)ccc3OC)ncc2Cl)c(NS(C)(=O)=O)c1 [Example 112, N-(2-(5-chloro-2-(5-(3-hydroxypropyl)-2-methoxyphenylamino)pyrimidin-4-ylamino)-5-methoxyphenyl)methanesulfonamide]
15 | 0.1 to 1 | ≤ 1 | COc1ccc(Nc2nc(Nc3cc(CCC(N)=O)ccc3OC)ncc2Cl)c(NS(C)(=O)=O)c1 [Example 113, 3-(3-(5-chloro-4-(4-methoxy-2-(methylsulfonamido)phenylamino)pyrimidin-2-ylamino)-4-methoxyphenyl)propanamide]
